In the supplement of paper PMC8149375:
Where “and” joins values, the source holds several entries; their conditions need not be identical. Equal entries are not always repeated.

Experiments:
Details in all cases: treatment: drug + dasatinib (fixed dose, not stated); 5 days
[1] = test system: 769-P; test: GI50 of drug in presence of dasatinib; higher = less potent
Procedure: (§1)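 Primary HTS combination arm: 8 RCC cell lines treated with 8 doses (up to 10 uM) of each library drug plus a fixed dose of dasatinib (dose not stated) for 5 days; viability read by CellTiter-Glo and normalised to DMSO. GI50 was fitted with XLfit, AUC is the area under the dose-response curve, and minimum viability is the lowest fraction of DMSO viability across doses.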

[2] = test system: 786-O; test: as above
Procedure: as §1

[3] = test system: A498; test: as above
Procedure: as §1

[4] = test system: ACHN; test: as above
Procedure: as §1

[5] = test system: CAKI-1; test: as above
Procedure: as §1

[6] = test system: SN12C; test: as above
Procedure: as §1

[7] = test system: TK-10; test: as above
Procedure: as §1

[8] = test system: UO-31; test: as above
Procedure: as §1

[9] = test system: 769-P; test: minimum viability across doses, drug + dasatinib, relative to DMSO (fraction); higher = less growth inhibition
Procedure: as §1

[10] = test system: 786-O; test: as above
Procedure: as §1

[11] = test system: A498; test: as above
Procedure: as §1

[12] = test system: ACHN; test: as above
Procedure: as §1

[13] = test system: CAKI-1; test: as above
Procedure: as §1

[14] = test system: SN12C; test: as above
Procedure: as §1

[15] = test system: TK-10; test: as above
Procedure: as §1

[16] = test system: UO-31; test: as above
Procedure: as §1

[17] = test system: 769-P; test: AUC of dose-response viability curve, drug + dasatinib, normalised to DMSO (arbitrary (AUC of normalised viability)); higher = less growth inhibition
Procedure: as §1

[18] = test system: 786-O; test: as above
Procedure: as §1

[19] = test system: A498; test: as above
Procedure: as §1

[20] = test system: ACHN; test: as above
Procedure: as §1

[21] = test system: CAKI-1; test: as above
Procedure: as §1

[22] = test system: SN12C; test: as above
Procedure: as §1

[23] = test system: TK-10; test: as above
Procedure: as §1

[24] = test system: UO-31; test: as above
Procedure: as §1

GI50 of drug [2] | GI50 of drug [4] | Compound | GI50 of drug [1] | GI50 of drug [3] | GI50 of drug [5] | GI50 of drug [6] | GI50 of drug [7] | GI50 of drug [8] | minimum viability across doses [9] | minimum viability across doses [10] | minimum viability across doses [11] | minimum viability across doses [12] | minimum viability across doses [13] | minimum viability across doses [14] | minimum viability across doses [15] | minimum viability across doses [16] | AUC of dose-response viability curve [17] | AUC of dose-response viability curve [18] | AUC of dose-response viability curve [19] | AUC of dose-response viability curve [20] | AUC of dose-response viability curve [21] | AUC of dose-response viability curve [22] | AUC of dose-response viability curve [23] | AUC of dose-response viability curve [24]
> 10000 nM | > 10000 nM | O=C1NC(=O)C(=Cc2ccc(-c3ccc(F)cc3)o2)S1 (stereo in doubt) + Cc1nc(Nc2ncc(C(=O)Nc3c(C)cccc3Cl)s2)cc(N2CCN(CCO)CC2)n1 [dasatinib] | > 10000 nM | > 10000 nM | > 10000 nM | > 10000 nM | > 10000 nM | > 10000 nM | 0.594 | 0.519 | 0.903 | 0.607 | 0.638 | 0.655 | 0.633 | 0.657 | 2.42 | 2.24 | 3.83 | 2.28 | 2.46 | 2.4 | 2.37 | 3.43
25.2 nM | 15 nM | CCCCOc1c(C(=O)c2c(F)cc(C)cc2F)cnc2[nH]ncc12 + Cc1nc(Nc2ncc(C(=O)Nc3c(C)cccc3Cl)s2)cc(N2CCN(CCO)CC2)n1 [dasatinib] | > 10000 nM | > 10000 nM | 2580 nM | > 10000 nM | 322 nM | 2650 nM | 0.52 | 0.0144 | 0.795 | 0.135 | 0.378 | 0.565 | 0.377 | 0.182 | 2.26 | 1.09 | 3.45 | 1.18 | 1.94 | 2.47 | 1.89 | 3.38
> 10000 nM | > 10000 nM | N#Cc1c(O)c2c(-c3ccc(-c4ccccc4O)cc3)csc2[nH]c1=O + Cc1nc(Nc2ncc(C(=O)Nc3c(C)cccc3Cl)s2)cc(N2CCN(CCO)CC2)n1 [dasatinib] | > 10000 nM | > 10000 nM | > 10000 nM | > 10000 nM | > 10000 nM | > 10000 nM | 0.683 | 0.6 | 0.86 | 0.595 | 0.655 | 0.634 | 0.705 | 1.02 | 2.56 | 2.63 | 3.43 | 2.25 | 2.38 | 2.35 | 2.78 | 4.43
184 nM and 231 nM | 18.2 nM and 153 nM | CO[C@@H](C(=O)N1Cc2[nH]nc(NC(=O)c3ccc(N4CCN(C)CC4)cc3)c2C1)c1ccccc1 + Cc1nc(Nc2ncc(C(=O)Nc3c(C)cccc3Cl)s2)cc(N2CCN(CCO)CC2)n1 [dasatinib] | 2950 nM and 3100 nM | 1310 nM and 2720 nM | 170 nM and 198 nM | 491 nM and 366 nM | 1560 nM and 1030 nM | 3120 nM and 3920 nM | 0.346 and 0.337 | – | 0.36 and 0.384 | 0.0933 and 0.0842 | 0.0301 and 0.0221 | 0.159 and 0.145 | 0.146 and 0.131 | 0.0249 and 0.0141 | 2.12 and 2.33 | 1.57 and 1.49 | 2.44 and 2.82 | 1.37 and 1.42 | 1.46 | 1.95 and 1.86 | 2.19 and 2.06 | 2.67 and 3.57
